# Results: patent US20260209152A1, “Substituted Hydroxystilbene Compounds and Derivatives, Synthesis and Uses Thereof” (Kynan Duke IP, LLC, priority 2019, published 2026)
# Read-outs that look alike come from different tables or passages of the source.
# How the values were obtained:
# Assay in all cases: CellTiter Glo cell viability assay
# Ewing's Sarcoma HTB-166 = type: cell-based, human; details: for IC50: Homo sapiens
# Procedure, shortened: (§1)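 Cells were seeded at 1.7*10^3 cells/well in quadruplicate and treated with 18 two-fold dilutions from 5 μM (0.000038146–5 μM), or with 1, 2, 5, 10 and 20 μM. Viability was read by CellTiter Glo luminescence on days 1, 3 and 5, and IC50 came from nonlinear regression of RLU against log dose.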
# Rhabomyosarcoma TE 159.T = type: cell-based, human; details: for IC50: Homo sapiens
# Procedure, shortened: as §1
# Kidney Caki-1 = type: cell-based, human; details: for IC50: Homo sapiens
# Procedure, shortened: as §1
# Kidney Caki-2 = type: cell-based, human; details: for IC50: Homo sapiens
# Procedure, shortened: as §1
# Lung NCI-H1573 = type: cell-based, human; details: for IC50: Homo sapiens
# Procedure, shortened: as §1
# Tongue CAL 27 = type: cell-based, human; details: for IC50: Homo sapiens
# Procedure, shortened: as §1
# Lung NCI-H1563 = type: cell-based, human; details: for IC50: Homo sapiens
# Procedure, shortened: as §1
# Liver SNU-423 = type: cell-based, human; details: for IC50: Homo sapiens
# Procedure, shortened: as §1
# Breast 4T1 = type: cell-based; details: Table 5B: 11 dilutions 3-0.00001 μM; Exp N
# Experimental: 1.7*10^3 cells/well were seeded in quadruplicates in 96-well plate after plating. Drugs were added at 5 μM and 2-fold dilutions over 18 concentrations (0.000038146-5 […] range) to generate a dose-response curve. Cell growth was assessed on day 1, 3 and 5 after drug treatments using the CellTiter Glo Luminescence Cell Viability Assay (Promega) according to manufacturer's protocol. Thermo Scientific Varioskan LUX Multimode Microplate instrument was used for plate reading. Data are expressed as mean luminescence (arbitrary units) ±S.D.
# Cell Viability Assays were employed to determine the concentration of Compound 1 (KYN-001) and analogues where the response is reduced by half. For each treatment of cancer cells, 1, 2, 5, 10 and 20 μM solutions of compounds were applied. GraphPad Prism 7 software was used to fit dose response curves. Relative Luminescence Units were plotted against the log values of the doses used and the nonlinear regression model was used for data analysis.
# Bladder J82 = type: cell-based, human; details: for IC50: Homo sapiens, 72 h, 3 Days of treatment, 18 2-fold dilutions 5-0.00003 μM
# Procedure, shortened: as §1
# Breast MCF7 = type: cell-based, human; details: for IC50: Homo sapiens, MCF7, 72 h, 3 Days of treatment, 18 2-fold dilutions 5-0.00003 μM
# Procedure, shortened: as §1
# Bladder UMUC-14 = type: cell-based, human; details: for IC50: Homo sapiens, UMUC14, 72 h, 3 Days of treatment, 18 2-fold dilutions 5-0.00003 μM
# Procedure, shortened: as §1
# Lung BEAS-2B = type: cell-based, human; details: for IC50: Homo sapiens, BEAS-2B, 72 h, 3 Days of treatment, 18 2-fold dilutions 5-0.00003 μM
# Procedure, shortened: as §1
# [1] = test system: Connective Tissue Sarcoma HT-1080; type: cell-based, human; details: for IC50: Homo sapiens, HT-1080, 72 h, 3 Days of treatment, 18 2-fold dilutions 5-0.00003 μM
# Procedure, shortened: as §1
# Rhabomyosarcoma Hs 729 = type: cell-based, human; details: for IC50: Homo sapiens, 72 h, 3 Days of treatment, 18 2-fold dilutions 5-0.00003 μM
# Procedure, shortened: as §1
# Fibrosarcomas SW 684 = type: cell-based, human; details: for IC50: Homo sapiens, SW684, 72 h, 3 Days of treatment, 18 2-fold dilutions 5-0.00003 μM
# Procedure, shortened: as §1
# Osteosarcomas KHOS_N/P = type: cell-based, human; details: for IC50: Homo sapiens, KHOS/NP, 72 h, 3 Days of treatment, 18 2-fold dilutions 5-0.00003 μM
# Procedure, shortened: as §1
# Pancreatic CAPAN-2 = type: cell-based, human; details: for IC50: Homo sapiens, Capan-2, 72 h, 3 Days of treatment, 18 2-fold dilutions 5-0.00003 μM
# Procedure, shortened: as §1
# Lung NCI-H1299 = type: cell-based, human; details: for IC50: Homo sapiens, NCI-H1299, 72 h, 18 2-fold dilutions 5-0.00003 μM
# Procedure, shortened: as §1
# Osteosarcomas SJSA_1 = type: cell-based, human; details: for IC50: Homo sapiens, SJSA-1, 72 h, 3 Days of treatment, 18 2-fold dilutions 5-0.00003 μM
# Procedure, shortened: as §1
# Bladder TCCSUP = type: cell-based, human; details: for IC50: Homo sapiens, TCC-SUP, 72 h, 3 Days of treatment, 18 2-fold dilutions 5-0.00003 μM
# Procedure, shortened: as §1
# Liver JHH-6 = type: cell-based, human; details: for IC50: Homo sapiens, 72 h, 3 Days of treatment, 18 2-fold dilutions 5-0.00003 μM
# Procedure, shortened: as §1
# [2] = RD-ES/HTB-166, 11 dilutions 3-0.00001 μM, read-out: IC50
# [3] = Caki-1/HTB-46, 11 dilutions 3-0.00001 μM, read-out: IC50
# [4] = Caki-2/HTB-47, 11 dilutions 3-0.00001 μM, read-out: IC50
# [5] = NCI-H1573/CRL-5877, 11 dilutions 3-0.00001 μM, read-out: IC50
# [6] = CAL 27/CRL-2095, 11 dilutions 3-0.00001 μM, read-out: IC50
# [7] = NCI-H1563/CRL-5875, 11 dilutions 3-0.00001 μM, read-out: IC50
# [8] = SNU-423/CRL-2238, 11 dilutions 3-0.00001 μM, read-out: IC50
# [9] = IC50 of 1 [KYN-001] vs 8 [KYN-119], 3 Days
# [10] = 72 h, 3 Days of treatment, 18 2-fold dilutions 5-0.00003 μM, read-out: Average IC50
# [11] = CAKI-1, 72 h, 3 Days of treatment, 18 2-fold dilutions 5-0.00003 μM, read-out: Average IC50
# [12] = CAKI-2, 72 h, 3 Days of treatment, 18 2-fold dilutions 5-0.00003 μM, read-out: Average IC50
# [13] = NCI-H1573, 72 h, 3 Days of treatment, 18 2-fold dilutions 5-0.00003 μM, read-out: Average IC50
# [14] = CAL-27, 72 h, 3 Days of treatment, 18 2-fold dilutions 5-0.00003 μM, read-out: Average IC50
# [15] = NCI-H1563, 72 h, 3 Days of treatment, 18 2-fold dilutions 5-0.00003 μM, read-out: Average IC50
# [16] = 3 Days of treatment, read-out: Average IC50
# [17] = Table 4: 3 Days of treatment, Average (1, 8) or single Exp A-D, read-out: IC50
# [18] = SNU-423, 72 h, 3 Days of treatment, 18 2-fold dilutions 5-0.00003 μM, read-out: Average IC50
smiles,measurement,setting,value
"COc1cc(/C=C/c2cc(O)cc(OC)c2CC=C(C)C)ccc1NC=O [Compound 27, (E)-N-(4-(5-hydroxy-3-methoxy-2-(3-methylbut-2-en-1-yl)styryl)-2-methoxyphenyl)formamide]",IC50,Ewing's Sarcoma HTB-166; [2],133 nM
same,IC50,"Rhabomyosarcoma TE 159.T; TE 159.T/CRL-7752, 11 dilutions 3-0.00001 μM, read-out: IC50",31 nM
same,IC50,Kidney Caki-1; [3],15.4 nM
same,IC50,Kidney Caki-2; [4],1550 nM
same,IC50,Lung NCI-H1573; [5],48 nM
same,IC50,Tongue CAL 27; [6],15 nM
same,IC50,Lung NCI-H1563; [7],59.8 nM
same,IC50,Liver SNU-423; [8],53.5 nM
same,IC50,Breast 4T1,29.2 nM
"CCOc1cc(O)cc(/C=C/c2ccc(NC=O)c(OC)c2)c1CC=C(C)C [Compound 28, (E)-N-(4-(3-Ethoxy-5-hydroxy-2-(3-methylbut-2-en-1-yl)styryl)-2-methoxyphenyl)formamide]",IC50,Ewing's Sarcoma HTB-166; [2],65.1 nM
same,IC50,Kidney Caki-1; [3],7.2 nM
same,IC50,Kidney Caki-2; [4],69.8 nM
same,IC50,Lung NCI-H1573; [5],21.2 nM
same,IC50,Tongue CAL 27; [6],5 nM
same,IC50,Lung NCI-H1563; [7],15.9 nM
same,IC50,Liver SNU-423; [8],27.5 nM
"CCOc1cc(O)cc(/C=C/c2ccc(O)c(OC)c2)c1CC=C(C)C [Compound 8, (E)-3-Ethoxy-5-(4-hydroxy-3-methoxystyryl)-4-(3-methylbut-2-en-1-yl)phenol]",IC50,Bladder J82,46.5 nM
same,Fold IC50,Bladder J82; [9],4.0
same,IC50,Ewing's Sarcoma HTB-166; [10],49.2 nM
same,IC50,Ewing's Sarcoma HTB-166; [2],163 nM
same,Fold IC50,Ewing's Sarcoma HTB-166; [9],5.2
same,IC50,Breast MCF7,136 nM
same,Fold IC50,Breast MCF7; [9],5.1
same,IC50,Bladder UMUC-14,563 nM
same,Fold IC50,Bladder UMUC-14; [9],2.1
same,IC50,Lung BEAS-2B,15 nM
same,Fold IC50,Lung BEAS-2B; [9],5.1
same,IC50,Rhabomyosarcoma TE 159.T; [10],19.6 nM
same,Fold IC50,Rhabomyosarcoma TE 159.T; [9],7.5
same,IC50,[1],17.3 nM
same,Fold IC50,[1]; [9],2.1
same,IC50,Kidney Caki-1; [11],8.9 nM
same,IC50,Kidney Caki-1; [3],27.9 nM
same,Fold IC50,Kidney Caki-1; [9],12
same,IC50,Kidney Caki-2; [12],281 nM
same,IC50,Kidney Caki-2; [4],524 nM
same,Fold IC50,Kidney Caki-2; [9],4.0
same,IC50,Rhabomyosarcoma Hs 729,64.9 nM
same,Fold IC50,Rhabomyosarcoma Hs 729; [9],5.9
same,IC50,Lung NCI-H1573; [13],20.5 nM
same,IC50,Lung NCI-H1573; [5],33.5 nM
same,Fold IC50,Lung NCI-H1573; [9],11
same,IC50,Tongue CAL 27; [14],38.3 nM
same,IC50,Tongue CAL 27; [6],30.9 nM
same,Fold IC50,Tongue CAL 27; [9],1.5
same,IC50,Fibrosarcomas SW 684,4.63 nM
same,Fold IC50,Fibrosarcomas SW 684; [9],.12
same,IC50,Lung NCI-H1563; [15],19.5 nM
same,IC50,Lung NCI-H1563; [7],54.5 nM
same,Fold IC50,Lung NCI-H1563; [9],23
same,IC50,Osteosarcomas KHOS_N/P,10.5 nM
same,Fold IC50,Osteosarcomas KHOS_N/P; [9],6.6
same,IC50,Pancreatic CAPAN-2,9.75 nM
same,Fold IC50,Pancreatic CAPAN-2; [9],19
same,IC50,Lung NCI-H1299; [16],8.56 nM
same,IC50,Lung NCI-H1299; [17],8.56 nM
same,Fold IC50,Lung NCI-H1299; [9],7.3
same,IC50,Osteosarcomas SJSA_1,9580 nM
same,Fold IC50,Osteosarcomas SJSA_1; [9],0.2
same,IC50,Bladder TCCSUP,112 nM
same,Fold IC50,Bladder TCCSUP; [9],2.6
same,IC50,Liver SNU-423; [18],6.23 nM
same,IC50,Liver SNU-423; [8],79.7 nM
same,Fold IC50,Liver SNU-423; [9],5.4
same,IC50,Liver JHH-6,36.4 nM
same,Fold IC50,Liver JHH-6; [9],4.7
"CCOc1cc(O)cc(/C=C/c2ccc(O)c(O)c2)c1CC=C(C)C [Compound 20, (E)-4-(3-Ethoxy-5-hydroxy-2-(3-methylbut-2-en-1-yl)styryl)benzene-1,2-diol]",IC50,Ewing's Sarcoma HTB-166; [2],338 nM
same,IC50,Kidney Caki-1; [3],96.3 nM
same,IC50,Kidney Caki-2; [4],302 nM
same,IC50,Lung NCI-H1573; [5],55.8 nM
same,IC50,Tongue CAL 27; [6],40.9 nM
same,IC50,Lung NCI-H1563; [7],74.1 nM
same,IC50,Liver SNU-423; [8],119 nM
"COc1cc(/C=C/c2cc(O)cc(OC)c2CC=C(C)C)ccc1O [Compound 1, (E)-3-(4-hydroxy-3-methoxystyryl)-5-methoxy-4-(3-methylbut-2-en-1-yl)phenol]",IC50,Bladder J82,184 nM
same,IC50,Ewing's Sarcoma HTB-166; [10],257 nM
same,IC50,Ewing's Sarcoma HTB-166; [2],310 nM
same,IC50,Breast MCF7,694 nM
same,IC50,Bladder UMUC-14,1160 nM
same,IC50,Lung BEAS-2B,76.4 nM
same,IC50,Rhabomyosarcoma TE 159.T; [10],147 nM
same,IC50,[1],36.7 nM
same,IC50,Kidney Caki-1; [11],103 nM
same,IC50,Kidney Caki-1; [3],120 nM
same,IC50,Kidney Caki-2; [12],1120 nM
same,IC50,Kidney Caki-2; [4],426 nM
same,IC50,Rhabomyosarcoma Hs 729,383 nM
same,IC50,Lung NCI-H1573; [13],217 nM
same,IC50,Lung NCI-H1573; [5],273 nM
same,IC50,Tongue CAL 27; [14],56.8 nM
same,IC50,Tongue CAL 27; [6],89.4 nM
same,IC50,Fibrosarcomas SW 684,55.2 nM
same,IC50,Lung NCI-H1563; [15],449 nM
same,IC50,Lung NCI-H1563; [7],184 nM
same,IC50,Osteosarcomas KHOS_N/P,68.7 nM
same,IC50,Pancreatic CAPAN-2,182 nM
same,IC50,Lung NCI-H1299; [16],62.4 nM
same,IC50,Lung NCI-H1299; [17],64.2 nM
same,IC50,Osteosarcomas SJSA_1,2300 nM
same,IC50,Bladder TCCSUP,294 nM
same,IC50,Liver SNU-423; [18],33.8 nM
same,IC50,Liver SNU-423; [8],203 nM
same,IC50,Liver JHH-6,172 nM
same,IC50,Breast 4T1,117 nM
